Paper PMC7774306, “The Crystal Structures of Bacillithiol Disulfide Reductase Bdr (YpdA) Provide Structural and Functional Insight into a New Type of FAD-Containing NADPH-Dependent Oxidoreductase” (Biochemistry, 2020)

What was measured:
[1] = biological target: T1, Sa YpdA (Bdr) (Staphylococcus aureus, UniProt A0A0H2WWS2); assay: NADPH consumption at […] nm; assay type: biochemical; conditions: NADPH as co-substrate; anaerobic
T1 construct: gene SACOL1520; expressed and purified; FAD-containing; biological homotetramer; tag details only in supplement
T1 sequence (A0A0H2WWS2 1-328): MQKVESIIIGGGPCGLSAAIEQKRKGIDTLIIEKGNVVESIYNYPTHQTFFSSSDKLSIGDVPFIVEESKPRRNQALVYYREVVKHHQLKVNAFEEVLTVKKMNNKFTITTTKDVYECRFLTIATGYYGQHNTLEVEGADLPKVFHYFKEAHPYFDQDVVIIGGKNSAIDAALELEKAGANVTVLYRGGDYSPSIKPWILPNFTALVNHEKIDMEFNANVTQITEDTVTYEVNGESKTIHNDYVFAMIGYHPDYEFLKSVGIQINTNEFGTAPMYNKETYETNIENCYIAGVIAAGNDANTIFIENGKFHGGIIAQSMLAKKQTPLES

[2] = biological target: T2, Bc YpdA (Bdr) (Bacillus cereus, UniProt Q81FS4); assay: NADPH consumption at […] nm; assay type: biochemical; conditions: anaerobic
T2 construct: gene BC_1495; expressed and purified; FAD-containing; biological homotetramer; tag details only in supplement
T2 sequence (Q81FS4 1-326): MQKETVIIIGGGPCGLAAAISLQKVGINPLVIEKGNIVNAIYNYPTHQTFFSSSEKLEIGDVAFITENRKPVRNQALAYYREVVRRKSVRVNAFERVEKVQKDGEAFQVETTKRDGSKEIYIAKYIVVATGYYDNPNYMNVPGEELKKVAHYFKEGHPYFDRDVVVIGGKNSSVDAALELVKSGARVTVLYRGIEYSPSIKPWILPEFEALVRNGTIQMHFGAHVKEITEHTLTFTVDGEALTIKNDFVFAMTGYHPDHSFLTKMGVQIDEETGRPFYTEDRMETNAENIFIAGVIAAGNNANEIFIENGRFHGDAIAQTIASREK

[3] = biological target: T1, Sa YpdA (Bdr); assay: X-ray crystallography; assay type: binding

In the case of `N[C@@H](CSSC[C@H](N)C(=O)N[C@H]1[C@@H](O[C@@H](CC(=O)O)C(=O)O)O[C@H](CO)[C@@H](O)[C@@H]1O)C(=O)N[C@H]1[C@@H](O[C@@H](CC(=O)O)C(=O)O)O[C@H](CO)[C@@H](O)[C@@H]1O` [BSSB], the “NADPH consumption at 340 nm” value [1] is reported as “YpdAs from Bc and Sa are both able to reduce BSSB” and the “NADPH consumption at 340 nm” value ([2]; NADPH as co-substrate) is reported as “YpdAs from Bc and Sa are both able to reduce BSSB”.
For `Cc1cc2nc3c(=O)[nH]c(=O)nc-3n(C[C@H](O)[C@H](O)[C@H](O)COP(=O)(O)OP(=O)(O)OC[C@H]3O[C@@H](n4cnc5c(N)ncnc54)[C@H](O)[C@@H]3O)c2cc1C` [FAD], the X-ray crystallography ([3]; bound cofactor, 2.9 and 3.1 A resolution) was “Monomer structure alignment of Bc and Sa YpdA, displaying the NADPH and FAD binding domains”.
For `NC(=O)C1=CN([C@@H]2O[C@H](COP(=O)(O)OP(=O)(O)OC[C@H]3O[C@@H](n4cnc5c(N)ncnc54)[C@H](OP(=O)(O)O)[C@@H]3O)[C@@H](O)[C@H]2O)C=CC1` [NADPH], the X-ray crystallography ([3]; NADPH not added, co-purified, bound in chains C, D and F, FAD present) was “we observed in both Sa YpdA structures electron density for bound NADPH” and the “NADPH consumption at 340 nm” value ([2]; BSSB as co-substrate) was “both Sa and Bc YpdAs can reduce BSSB with a rate of consumption of NADPH”.
